According to US5120752A, “Cyclopropyl derivative lipoxygenase inhibitors” (Abbott Laboratories, priority 1990, dated 1992):
Each block holds one molecule with its values, some of them ahead of it.

Columns and labels:
[1] = target: T1, 5-lipoxygenase (Rattus norvegicus, UniProt P12527); experiment: In vitro inhibition of 5-lipoxygenase (20,000×g supernatant from homogenized RBL-1 cells, radiolabeled arachidonic acid); assay type: biochemical; settings: 20,000×g supernatant of RBL-1 cells; triplicate; read-out: IC50 (in vitro inhibitory potency against 5-lipoxygenase)
T1 construct: 20,000×g supernatant from 1.5 million homogenized RBL-1 cells; endogenous in cells; host or cells: RBL-1 cells (20,000×g supernatant of homogenate)
T1 sequence (P12527 1-673): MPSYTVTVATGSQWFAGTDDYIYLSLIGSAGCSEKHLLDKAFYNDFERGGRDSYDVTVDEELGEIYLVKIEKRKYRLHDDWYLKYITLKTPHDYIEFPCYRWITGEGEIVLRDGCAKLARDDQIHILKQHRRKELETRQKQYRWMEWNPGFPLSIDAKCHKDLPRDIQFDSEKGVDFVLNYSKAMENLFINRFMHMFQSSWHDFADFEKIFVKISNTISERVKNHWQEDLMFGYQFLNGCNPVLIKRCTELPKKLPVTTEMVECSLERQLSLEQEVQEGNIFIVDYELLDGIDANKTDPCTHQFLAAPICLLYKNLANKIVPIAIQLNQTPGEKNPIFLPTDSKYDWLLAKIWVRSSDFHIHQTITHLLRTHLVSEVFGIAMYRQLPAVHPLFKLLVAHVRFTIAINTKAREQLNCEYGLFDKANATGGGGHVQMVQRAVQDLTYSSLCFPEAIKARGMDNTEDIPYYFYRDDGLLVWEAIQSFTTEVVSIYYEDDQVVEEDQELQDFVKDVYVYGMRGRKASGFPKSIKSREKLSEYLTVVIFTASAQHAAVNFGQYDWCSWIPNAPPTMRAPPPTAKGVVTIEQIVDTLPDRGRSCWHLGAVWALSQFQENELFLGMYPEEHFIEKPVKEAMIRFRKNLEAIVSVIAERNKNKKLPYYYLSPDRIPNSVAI
Method: Assays to determine 5-lipoxygenase inhibitory activity were performed in […] incubations containing the 20,000×g supernatant from 1.5 million homogenized RBL-1 cells and various concentrations of the test compound. Reactions were initiated by addition of radiolabeled arachidonic acid and terminated by acidification and ether extraction. Reaction products were separated from nonconverted substrate by thin layer chromatography and measured by liquid scintillation spectroscopy. All incubations were performed in triplicate. Inhibition of 5-lipoxygenase activity was calculated as the ratio of the amount of product formed in the presence and absence of inhibitor. IC50 values (concentration of compound producing 50% enzyme inhibition) were calculated by linear regression analysis of percentage inhibition versus log inhibitor concentration plots. (Dyer, R .D.; Haviv, F.; Hanel, A. M.; Bornemier, D. A.; Carter, G. W. Fed. Proc., Fed. Am. Soc. Exp. Biol. 1984, 43, 1462A).

[2] = system: leukotriene biosynthesis; experiment: Inhibition of leukotriene biosynthesis in vivo after oral administration, rat peritoneal anaphylaxis model; settings: 200 μmol/kg oral (gavage), 1 h before antigen challenge; for inhibition in vivo at 200 µmol/kg: read-out: % Inhibition of Leukotrienes at 200 μmol/kg oral dose
Method: Inhibition of the biosynthesis of leukotrienes in vivo after oral administration of representative test compounds of this invention was determined using a rat peritoneal anaphylaxis model in a similar manner as that described by Young and coworkers (Young, P. R.; Dyer, R. D.; Carter, G. W. Fed. Proc., Fed. Am. Soc. Exp. Biol. 1985, 44, 1185). In this model rats were injected intraperitoneally (ip) with rabbit antibody to bovine serum albumin (BSA) and three hours later injected ip with BSA to induce an antgen-antibody response. Rats were sacrificed 15 minutes after this challenge and the peritoneal fluids were collected and analyzed for leukotriene levels. Test compounds were administered by gavage one hour prior to the antigen challenge. Percent inhibition values were determined by comparing the treatment group to the mean of the control group. The results of this assay, for representative compounds of the present invention, at an oral dose level of […] are presented in Table 2, and at an oral dose of […] in Table 3.

[3] = system: LTB4 biosynthesis in human whole blood; experiment: Inhibition of calcium ionophore-induced LTB4 biosynthesis in human whole blood; assay type: cell-based; settings: A23187 50 μM, 15 min preincubation, read-out: Inhibition of Leukotriene Biosynthesis IC50
Method: Inhibition of leukotriene biosynthesis was evaluated in an assay, involving calcium ionophore-induced LTB4 biosynthesis expressed by human whole blood. Heparinized (20 U/mL) human blood (0.3 mL) was preincubated with test compound or vehicle for 15 min. at 37° C. Eicosanoid biosynthesis was initiated by adding calcium ionophore (A23187) in DMSO to a final concentration of 50 μM and terminated after 30 min. by rapid cooling of the blood in an ice bath and centrifuging at 3° C. for 10 min at 2500×g. The plasma was mixed with 4 volumes of methanol and allowed to stand for at least 30 min. at 3° C. prior to centrifuging at 1800×g for 10 min. The level of LTB4 in aliquots of the methanol-plasma extract was analyzed by radio-immunoassay or enyme-immunoassay techniques.

SMILES: NC(=O)N(O)C[C@@H]1C[C@H]1c1cccc(Oc2ccccc2)c1 (relative stereo) [Example 10, N-(1-trans-(2-(3-phenoxyphenyl)cyclopropyl)methyl)-N-hydroxyurea]
IC50 [1]: 100 nM
inhibition in vivo at 200 µmol/kg [2]: 97%

SMILES: NC(=O)N(O)C[C@@H]1C[C@H]1c1cc2ccccc2s1 (relative stereo) [Example 12]
inhibition in vivo at 200 µmol/kg [2]: 68%

SMILES: CNC(=O)N(O)C[C@@H]1C[C@H]1c1cc2ccccc2s1 (relative stereo) [Example 13]
inhibition in vivo at 200 µmol/kg [2]: 76%

SMILES: Cc1ccc([C@@H]2C[C@H]2C(C)N(O)C(N)=O)o1 (relative stereo) [Example 26, N-(1-trans-((5-methylfuran-2-yl)cyclopropyl)ethyl)-N-hydroxyurea]
IC50 [1]: 1100 nM
% Inhibition of Leukotrienes at 200 μmol/kg oral dose [2]: 92%

SMILES: NC(=O)N(O)C[C@@H]1C[C@H]1CCc1ccccc1 (relative stereo) [Example 33, N-(1-trans-(2-(2-phenylethyl)cyclopropyl)methyl)-N-hydroxyurea]
inhibition in vivo at 200 µmol/kg [2]: 84%

SMILES: NC(=O)N(O)C[C@@H]1C[C@H]1c1ccc(Br)cc1 (relative stereo) [Example 35, N-(1-trans-(2-(4-bromophenyl)cyclopropyl)methyl)-N-hydroxyurea]
inhibition in vivo at 200 µmol/kg [2]: 99%

SMILES: NC(=O)N(O)C[C@@H]1C[C@H]1c1ccccc1Oc1ccccc1 (relative stereo) [Example 40, N-(1-trans-(2-(2-phenoxyphenyl)cyclopropyl)methyl)-N-hydroxyurea]
IC50 [1]: 200 nM
inhibition in vivo at 200 µmol/kg [2]: 97%

SMILES: Cc1ccc([C@@H]2C[C@H]2CN(O)C(N)=O)cc1 (relative stereo) [Example 47, N-(1-trans-(2-(4-methylphenyl)cyclopropyl)methyl)-N-hydroxyurea]
IC50 [1]: 300 nM
inhibition in vivo at 200 µmol/kg [2]: 100%

SMILES: NC(=O)N(O)C[C@@H]1C[C@H]1c1cccc(Oc2ccc(O)cc2)c1 (relative stereo) [Example 160, N-(1-trans-(2-(3(4-hydroxyphenoxy)phenyl)cyclopropyl)methyl)-N-hydroxyurea]
IC50 [3]: 470 nM

SMILES: CC([C@@H]1C[C@H]1c1cc2ccccc2s1)N(O)C(N)=O (stereo partly drawn) [Example 1, N-(1-trans-(2-(benzo[b]thien-2-yl)cyclopropyl)ethyl)-N-hydroxyurea]
inhibition in vivo at 200 µmol/kg [2]: 62%

SMILES: CC([C@@H]1C[C@H]1c1ccccc1)N(O)C(N)=O (stereo partly drawn) [Example 3, N-(1-trans-(2-phenylcyclopropyl)ethyl)-N-hydroxyurea]
IC50 [1]: 1600 nM
inhibition in vivo at 200 µmol/kg [2]: 100%

SMILES: CC(N(O)C(N)=O)[C@]1(C)C[C@H]1c1ccccc1 (stereo partly drawn) [Example 5, N-(1-trans-(1-methyl-2-phenylcyclopropyl)ethyl)-N-hydroxyurea]
inhibition in vivo at 200 µmol/kg [2]: 90%

SMILES: CC(C)Cc1ccc([C@@H]2C[C@H]2C(C)N(O)C(N)=O)cc1 (stereo partly drawn) [Example 19, N-(1-trans-(2-(4-(2-methyl-1-propyl)phenyl)cyclopropyl)-ethyl)-N-hydroxyurea]
inhibition in vivo at 200 µmol/kg [2]: 64%

SMILES: COc1ccc([C@@H]2C[C@H]2C(C)N(O)C(N)=O)cc1 (stereo partly drawn) [Example 22, N-(1-trans-(2-(4-methoxyphenyl)cyclopropyl)ethyl)-N-hydroxyurea]
IC50 [1]: 900 nM
inhibition in vivo at 200 µmol/kg [2]: 96%

SMILES: CC(Oc1ccc([C@@H]2C[C@H]2CN(O)C(N)=O)cc1)c1ccccc1 (stereo partly drawn) [Example 23, N-(1-trans-(2-(4-(1-phenylethoxy)phenyl)cyclopropyl)methyl)-N-hydroxyurea]
IC50 [1]: 100 nM
inhibition in vivo at 200 µmol/kg [2]: 93%

SMILES: CC(=O)N(O)C(C)[C@@H]1C[C@H]1c1cc2ccccc2s1 (stereo partly drawn) [Example 28, N-(1-trans-(2-(benzo[b]thien-2-yl)cyclopropyl)ethyl)-N-hydroxyacetamide]
IC50 [1]: 100 nM
inhibition in vivo at 200 µmol/kg [2]: 73%

SMILES: CC([C@@H]1C[C@H]1c1ccc(Br)cc1)N(O)C(N)=O (stereo partly drawn) [Example 37, N-(1-trans-(2-(4-bromophenyl)cyclopropyl)ethyl)-N-hydroxyurea]
IC50 [1]: 100 nM
inhibition in vivo at 200 µmol/kg [2]: 93%

SMILES: Cc1ccc([C@@H]2C[C@H]2C(C)N(O)C(N)=O)cc1 (stereo partly drawn) [Example 39, N-(1-trans-(2-(4-methylphenyl)cyclopropyl)ethyl)-N-hydroxyurea]
inhibition in vivo at 200 µmol/kg [2]: 82%

The next lines start with results.

IC50 [1]: 1800 nM
SMILES: NC(=O)N(O)C[C@@H]1C[C@H]1c1ccccc1 (relative stereo) [Example 4, N-1-(trans-(2-phenylcyclopropyl)methyl)-N-hydroxyurea]
inhibition in vivo at 200 µmol/kg [2]: 97%

IC50 [1]: 100 nM
SMILES: CNC(=O)N(O)C[C@@H]1C[C@H]1c1cccc(Oc2ccccc2)c1 (relative stereo) [Example 11, N-(1-trans-(2-(3-phenoxyphenyl)cyclopropyl)methyl)-N-hydroxy-N'-methylurea]
inhibition in vivo at 200 µmol/kg [2]: 65%

IC50 [1]: 2800 nM
SMILES: NC(=O)N(O)C[C@H]1C[C@H]1c1ccccc1 (relative stereo) [Example 16, N-(1-cis-(2-phenylcyclopropyl)methyl)-N-hydroxyurea]
inhibition in vivo at 200 µmol/kg [2]: 61%

IC50 [1]: 1700 nM
SMILES: CC(=O)N(O)C[C@@H]1C[C@H]1c1ccccc1 (relative stereo) [Example 27, N-(1-trans-(2-phenylcyclopropyl)methyl)-N-hydroxyacetamide]
inhibition in vivo at 200 µmol/kg [2]: 99%

IC50 [1]: 300 nM
SMILES: NC(=O)N(O)CC[C@@H]1C[C@H]1c1ccccc1 (relative stereo) [Example 34, N-(2-trans-(2-phenylcyclopropyl)ethyl)-N-hydroxyurea]
inhibition in vivo at 200 µmol/kg [2]: 100%

IC50 [3]: 170 nM
SMILES: NC(=O)N(O)C[C@@H]1C[C@H]1c1cccc(Oc2ccc(OCCO)cc2)c1 (relative stereo) [Example 161, N-(1-trans-(2-(3-(4-(2-hydroxyethoxy)phenoxy)phenyl)cyclopropyl)methyl)-N-hydroxyurea]

IC50 [3]: 250 nM
SMILES: Cc1cccc(Oc2cccc([C@@H]3C[C@H]3CN(O)C(N)=O)c2)n1 (relative stereo) [Example 163, N-(1-trans-(2-(3-(6-methyl-2-pyridyloxy)phenyl)cyclopropyl)methyl)-N-hydroxyurea]

IC50 [1]: 1800 nM
SMILES: CC(C1CC1c1ccccc1)N(O)C(N)=O (stereo not drawn) [Example 9, N-(1-cis-(2-phenylcyclopropyl)ethyl)-N-hydroxyurea]
inhibition in vivo at 200 µmol/kg [2]: 61%

IC50 [1]: 70 nM
SMILES: CNC(=O)N(O)C(C)[C@@H]1C[C@H]1c1cccc(Oc2ccccc2)c1 (stereo partly drawn) [Example 17, N-(1-trans-(2-(3-phenoxyphenyl)cyclopropyl)ethyl)-N-hydroxy-N'-methylurea]
inhibition in vivo at 200 µmol/kg [2]: 81%

IC50 [1]: 100 nM
SMILES: CC(Oc1ccc([C@H]2[C@H](CN(O)C(N)=O)C2(C)C)cc1)c1ccccc1 (some centres unmarked) [Example 25]
inhibition in vivo at 200 µmol/kg [2]: 52%

IC50 [1]: 900 nM
SMILES: COc1ccc([C@@H]2C[C@H]2C(C)N(O)C(C)=O)cc1 (stereo partly drawn) [Example 29, N-(1-trans-(2-(4-methoxyphenyl)cyclopropyl)ethyl)-N-hydroxyacetamide]
inhibition in vivo at 200 µmol/kg [2]: 96%
